We go through eleven compounds from ChEMBL document CHEMBL4732062, “Protease activated receptor 4 (PAR4) antagonists: Research progress on small molecules in the field of antiplatelet agents” (Eur J Med Chem, 2021).

Assay [1] in a line: Inhibition of thrombin-induced platelet aggregation in human platelet-rich plasma incubated for 1 min followed by thrombin addition. The class given is functional.
A short description of assay [2]: Inhibition of PAF-induced platelet aggregation in human platelet-rich plasma incubated for 1 min followed by PAF addition. The class given is functional.
Assay [3] in a line: Inhibition of collagen-induced platelet aggregation in human platelet-rich plasma incubated for 1 min followed by collagen addition. The class given is functional.
The nature of assay [4]: Inhibition of arachidonic acid-induced platelet aggregation in human platelet-rich plasma incubated for 1 min followed by arachidonic acid addition. The class given is functional, cell-based.
The test system of assay [5] is Cynomolgus monkey. The assay can be described thus: Antithrombotic activity in cynomolgus monkey model of electrolytic carotid artery thrombosis assessed as reduction in thrombus weight at 0.5 mg/kg, PO administered once daily for 3 days measured at 2 hrs post last dose relative to control. The class given is functional, Macaca fascicularis. More on the design: scale not given: the % may be the effect or the level left. To be noted: time 3 day.

The nature of assay [6]: Antagonist activity at PAR4 in cynomolgus monkey whole blood assessed as inhibition of Ala-(L-4-F-Phe)-Pro-Gly-Trp-Leu-Val-Lys-Asn-Gly-induced platelet aggregation preincubated for 10 mins followed by Ala-(L-4-F-Phe)-Pro-Gly-Trp-Leu-Val-Lys-Asn-Gly stimulation. It is filed as tissue-based. The settings on record: Macaca fascicularis.
Assay [7] has as its target T1, Proteinase-activated receptor 4 (Homo sapiens, UniProt Q96RI0).
T1 sequence (Q96RI0 whole entry): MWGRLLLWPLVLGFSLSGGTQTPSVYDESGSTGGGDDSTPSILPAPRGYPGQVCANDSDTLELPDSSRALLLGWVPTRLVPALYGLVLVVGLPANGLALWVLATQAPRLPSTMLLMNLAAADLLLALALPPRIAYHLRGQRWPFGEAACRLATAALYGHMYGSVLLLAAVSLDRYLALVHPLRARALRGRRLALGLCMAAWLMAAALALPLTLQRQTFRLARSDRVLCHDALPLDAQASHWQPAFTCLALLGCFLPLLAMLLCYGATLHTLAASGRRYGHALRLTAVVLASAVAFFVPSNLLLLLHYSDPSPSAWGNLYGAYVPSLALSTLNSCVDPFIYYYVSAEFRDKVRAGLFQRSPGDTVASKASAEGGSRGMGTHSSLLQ
The assay is described as follows: Inhibition of human PAR4 expressed in HEK293 cells assessed as Ala-(L-4-F-Phe)-Pro-Gly-Trp-Leu-Val-Lys-Asn-Gly-induced inhibition of calcium mobilization preincubated for 30 mins followed by Ala-(L-4-F-Phe)-Pro-Gly-Trp-Leu-Val-Lys-Asn-Gly stimulation by FLIPR method. It is filed as functional, cell-based.

For assay [8], the system named is Rhesus monkey. The assay can be described thus: Antithrombotic activity in monkey assessed as increase in mesenteric artery bleeding time at 0.05 to 0.5 mg/kg administered as single dose measured at 2 hrs post dose relative to control. The class given is functional, Macaca mulatta. The settings on record: dose 0.05-0.5 mg/kg.
Assay [9] deals with Rhesus monkey. The assay can be described thus: Antithrombotic activity in monkey model of electrolytic carotid artery thrombosis assessed as reduction in thrombus weight at 0.5 mg/kg administered as single dose measured at 2 hrs post dose relative to control. On the set-up: scale not given: the % may be the effect or the level left. It is filed as functional, Macaca mulatta.

Assay [10] concerns Rhesus monkey. The assay can be described thus: Antithrombotic activity in monkey model of electrolytic carotid artery thrombosis assessed as reduction in thrombus weight at 0.1 mg/kg administered as single dose measured at 2 hrs post dose. The class given is functional, Macaca mulatta. On the set-up: scale not given: the % may be the effect or the level left.
Assay [11] deals with Rhesus monkey. The assay is described as follows: Antithrombotic activity in monkey model of electrolytic carotid artery thrombosis assessed as reduction in thrombus weight at 0.05 mg/kg administered as single dose measured at 2 hrs post dose. It is filed as functional, Macaca mulatta. On the set-up: scale not given: the % may be the effect or the level left.
Assay [12] has as its system Rhesus monkey. The assay is described as follows: Antithrombotic activity in monkey assessed as increase in mesenteric artery bleeding time at 0.1 mg/kg administered as single dose cotreated with aspirin measured at 2 hrs post dose relative to control. The class given is functional, Macaca mulatta.
The test system of assay [13] is Rhesus monkey. The assay is described as follows: Antithrombotic activity in monkey assessed as increase in mesenteric artery bleeding time at 0.5 mg/kg administered as single dose cotreated with aspirin measured at 2 hrs post dose relative to control. It is filed as functional, Macaca mulatta.
Assay [14] has as its system Rhesus monkey. The assay is described as follows: Antithrombotic activity in monkey model of electrolytic carotid artery thrombosis assessed as reduction in thrombus weight at 0.1 mg/kg administered as single dose cotreated with aspirin measured at 2 hrs post dose relative to control. The class given is functional, Macaca mulatta. More on the design: scale not given: the % may be the effect or the level left.

The test system of assay [15] is Cynomolgus monkey. The assay can be described thus: Antithrombotic activity in cynomolgus monkey model of electrolytic carotid artery thrombosis assessed as reduction in thrombus weight at 4 mg/kg/hr, iv administered as single dose measured at 2 hrs post dose relative to control. The class given is functional, Macaca fascicularis. More on the design: scale not given: the % may be the effect or the level left.

In assay [16] the test system is Rhesus monkey. The assay can be described thus: Antithrombotic activity in monkey assessed as increase in mesenteric artery bleeding time at 4 mg/kg/hr, iv administered as single dose measured at 2 hrs post dose relative to control. It is filed as functional, Macaca mulatta.
Assay [17] has as its system Rhesus monkey. The assay is described as follows: Antithrombotic activity in monkey model of electrolytic carotid artery thrombosis assessed as reduction in thrombus weight at 0.5 mg/kg administered as single dose cotreated with aspirin measured at 2 hrs post dose relative to control. More on the design: scale not given: the % may be the effect or the level left. It is filed as functional, Macaca mulatta.

Assay [18] has as its system Cynomolgus monkey. The assay is described as follows: Antithrombotic activity in cynomolgus monkey model of electrolytic carotid artery thrombosis assessed as increase in mesenteric bleeding time at 1 mg/kg, PO administered once daily for 3 days measured at 2 hrs post last dose. It is filed as functional, Macaca fascicularis. The settings on record: time 3 day.
For assay [19], the system named is Cynomolgus monkey. The assay is described as follows: Antithrombotic activity in cynomolgus monkey model of electrolytic carotid artery thrombosis assessed as increase in provoked kidney bleeding time at 1 mg/kg, PO administered once daily for 3 days measured at 2 hrs post last dose. The settings on record: time 3 day. The class given is functional, Macaca fascicularis.

With `COC(=O)c1ccc(-c2nn(-c3ccccc3)c3ccccc23)o1`, the IC50 in assay [1] and in assay [2] was more than 270 µM throughout.
With `COC(=O)c1ccc(-c2nn(Cc3ccccc3)c3cc(C)ccc23)o1`, the IC50 was 126 µM in assay [1], 76.3 µM in assay [2], 59.3 µM in assay [3] and 32.4 µM in [4].
In turn, `CCOC(=O)c1ccc(-c2nn(Cc3ccccc3)c3ccccc23)cc1` showed an IC50 in [4] of 185 µM.
In the case of `O=C(O)c1ccc(-c2nn(Cc3ccccc3)c3ccccc23)cc1`, the IC50 in assay [1] is more than 270 µM; in assay [2], 235 µM; in assay [3], 148 µM; in [4], 156 µM.
As to `COC(=O)c1ccc(-c2nn(Cc3ccccc3)c3cc4c(cc23)OCO4)o1`, the IC50 is more than 270 µM in [1], more than 270 µM in assay [2], 157 µM in assay [3] and 92.3 µM in [4].
On to `CCOC(=O)c1cccc(-c2nn(Cc3ccccc3)c3ccccc23)c1`, for which the IC50 in [1] and in [2] was more than 270 µM in each case.
For the compound `COc1cc(OCc2nc(N3CCOCC3)sc2C)c2cc(-c3cn4nc(OC)sc4n3)oc2c1`, the Activity with Cynomolgus monkey [5] turned out to be 50%. Moreover, in assay [6], the IC50 worked out at 0.0021 µM.
Turning to `COc1cc(OCc2nc(-c3ccc(C(=O)N(C)C)cc3)sc2C)c2cc(-c3cn4nc(OC)sc4n3)oc2c1`, in assay [7], the IC50 worked out at 0.00045 µM. Moreover, the “fold change (FC)” value in the assay with Rhesus monkey [8] is listed as “<=1.2”; with Rhesus monkey [12] it was 2.6; with Rhesus monkey [13] it was 3. The Activity turned out to be 88% in the assay with Rhesus monkey [9], 63% in the assay with Rhesus monkey [10] and 36% in the assay with Rhesus monkey [11].
Turning to `COc1cnc2c(-c3nc4cc(F)c(O[C@@H]5CCC(C)(C)[C@@H]5OC(=O)Nc5ccnc(C)n5)cc4s3)cc(C)cc2n1`, the IC50 in [7] was 0.0024 µM.
With `CC(=O)Oc1ccccc1C(=O)O` [ASPIRIN], the results for the Activity in the assay on Rhesus monkey [14], in the assay with Cynomolgus monkey [15] and in the assay on Rhesus monkey [17] were 50%, 12% and 89%, respectively. Besides, the “fold change (FC)” value with Rhesus monkey [16] is on record as 2.2.
On to `COC(=O)[C@H](c1ccccc1Cl)N1CCc2sccc2C1` [CLOPIDOGREL], for which the “fold change (FC)” value in the assay on Cynomolgus monkey [18] and with Cynomolgus monkey [19] was more than 10 each time.
